# Measured values reported in patent publication US7700584B2 (Hangzhou Minsheng Pharmaceuticals Co., Ltd., priority 2004, dated 2010).
# Counter-ions that a name gives are not always drawn. Like-named read-outs stand apart in the source and are kept apart here.
# What was measured:
# [1] = system: mouse grafted liver cancer H22; experiment: Activity against mouse grafted liver cancer H22; assay type: in vivo, Kunming mice; details: for Tumor weight: X ± SD, n = 10; for inhibitory effect against mouse grafted liver cancer H22 (in words): three different concentrations (40, 20, 10 mg/kg), i.v.
# Method: (§1) The experiments were performed according to “Guideline for New Drugs (Western medicines) in Pre-clinical Stages” issued by Bureau of Drug Policy & Administration of the People's Republic of China, and the relevant methods in “Methodology of Pharmaceutical Experiments”, Xu Shuyun et al. ed. 120 male Kunming mice weighting […] were allowed to grow 3 days. No abnormality was observed. The mice were routinely inoculated in oxter with mouse sarcoma S-180, and weighted 4 hrs. after inoculation. The mice were randomly divided into 12 groups, 10 mice/group. Group 1 was given 0.3 ml of physiological saline as negative control; Group 2 was given 5-FU as positive control, 0.6 mg/mouse; Group 3 was given hydroxycamptothecine as positive control, 0.02 mg/mouse. Groups 4, 5 and 6 were injected with 10% Compound 6, 0.4 ml/mouse, 0.2 ml/mouse, and 0.1 ml/mouse, respectively. Groups 7, 8 and 9 were injected with 10% Compound 8, 0.4 ml/mouse, 0.2 ml/mouse, and 0.1 ml/mouse, respectively. Groups 10, 11, and 12 were injected with 10% Compound 20, 0.4 ml/mouse, 0.2 ml/mouse, and 0.1 ml/mouse, respectively. The tested compounds were administered on the next day after inoculation, once a day on alternate days, 6 doses totally administered. On the next day after the end dose, the mice were weighed and sacrificed. After the tumor was excised, body weight and tumor weight were recorded. The tumor inhibition rate was calculated based on the following formula: [(average tumor weight of the control groups−average tumor weight of the experimental groups)/average tumor weight of the control groups]×100%. The data was processed statistically. The above experiments were repeated three times.
# The experiments were identical with the experiments for activity against mouse grafted sarcoma S-180, except that the cell line inoculated was liver cancer H22. The experiments were repeated three times.
# [2] = system: mouse grafted sarcoma S-180; experiment: Activity against mouse grafted sarcoma S-180; assay type: in vivo, Kunming mice; details: for Tumor weight: X ± SD, n = 10; for inhibitory effect against mouse sarcoma S-180 (in words): three different concentrations (40, 20, 10 mg/kg), i.v.
# Method: (1) Experimental animals: Kunming mice weighting 18-22 g;
# (2) 100 mg/ml solutions of the 3 compounds were prepared, respectively, in water for injection (1% surface surfactant was added into the solution of Compound 6). 5-FU and camptothecine, 30 mg/kg and 1 mg/kg, respectively, were used as positive controls;
# 3. Route of Administration: Intravenous Injection.
# as §1
# [3] = Solubility in water (observation); assay type: physicochemical
# [4] = system: influenza A virus (Jifang 90-15); experiment: microbe, parasite or virus in culture; assay type: cell-based
# [5] = system: oral membrane herpes virus (VSV); assay type: cell-based
# [6] = system: LLC mouse Lewis lung carcinoma; experiment: In vitro anti-tumor IC50 (MTT), LLC; assay type: cell-based; details: Mus musculus, Lewis lung carcinoma, Table 4; read-out: IC50 (ug/ml) against tumor cell lines, LLC
# Method: (§2) (1) Single cell suspension was seeded into 96-well plates (the cells was diluted in the PRMI-1640 minimum medium to 3×10^4 cells/ml, […] diluted cells/well). […] The experiments were performed in quadruplicate.
# (§3) (2) The medium was removed. Solutions of the anti-tumor agents (50 compounds) were prepared in a freshly prepared medium at serial concentrations. […] of the solution was added into each well. Incubation was continued for 48 hours.
# (§4) (3) 20 ug of 2 mg/ml MTT was added into each well, and incubated for 4 hours.
# (§5) (4) The medium was removed from the well. The microplates were swiftly turned down to throw-off the medium. […] of DMSO was added into each well, and vortexed at room temperature for 10 minutes.
# (§6) (5) OD value (λ=570 nm) was measured with an Enzyme-Linked Detector.
# (§7) (6) The graph of cell vitality was plotted, and IC50 was calculated.
# [7] = system: A-549 human lung adenocarcinoma; experiment: In vitro anti-tumor IC50 (MTT), A-549; assay type: cell-based; details: Homo sapiens, A549, Table 4; read-out: IC50 (ug/ml) against tumor cell lines, A-549
# Method: as §2, §3, §4, §5, §6, §7
# [8] = system: Bel-7402 human hepatic carcinoma; experiment: In vitro anti-tumor IC50 (MTT), Bel-7402; assay type: cell-based; details: Homo sapiens, Bel-7402, Table 4; read-out: IC50 (ug/ml) against tumor cell lines, Bel-7402
# Method: as §2, §3, §4, §5, §6, §7
# [9] = system: SMMC-7721 human hepatic carcinoma; experiment: In vitro anti-tumor IC50 (MTT), SMMC-7721; assay type: cell-based; details: Homo sapiens, SMMC-7721, Table 4; read-out: IC50 (ug/ml) against tumor cell lines, SMMC-7721
# Method: as §2, §3, §4, §5, §6, §7
# [10] = H22, first experiment, 10 mg/kg i.v., 6 doses
# [11] = H22, first experiment, 20 mg/kg i.v., 6 doses
# [12] = H22, first experiment, 40 mg/kg i.v., 6 doses
# [13] = H22, second experiment, 10 mg/kg
# [14] = H22, second experiment, 20 mg/kg
# [15] = H22, second experiment, 40 mg/kg
# [16] = H22, third experiment, 10 mg/kg
# [17] = H22, third experiment, 20 mg/kg
# [18] = H22, third experiment, 40 mg/kg
# [19] = S-180, first experiment, 10 mg/kg i.v., 6 doses
# [20] = S-180, first experiment, 20 mg/kg i.v., 6 doses
# [21] = S-180, first experiment, 40 mg/kg i.v., 6 doses
# [22] = S-180, second experiment, 10 mg/kg i.v., 6 doses
# [23] = S-180, second experiment, 20 mg/kg i.v., 6 doses
# [24] = S-180, second experiment, 40 mg/kg i.v., 6 doses
smiles,measurement,setting,value
"CC(C)C1CC23OC1(O)CC(=CN1CCNCC1)C2CCC3C (stereo not shown) [Compound 8, Curcumol piperazine hydrochloride]",Tumor weight,[1]; [10],3.02 ± 0.33 g
same,Inhibition rate (%),[1]; [11],4.0%
same,Tumor weight,[1]; [11],2.9 ± 0.39 g
same,Inhibition rate (%),[1]; [12],37.1%
same,Tumor weight,[1]; [12],1.9 ± 0.36 g
same,Tumor weight,[1]; [13],3.10 ± 0.33 g
same,Inhibition rate (%),[1]; [14],4.0%
same,Tumor weight,[1]; [14],2.9 ± 0.39 g
same,Inhibition rate (%),[1]; [15],36.1%
same,Tumor weight,[1]; [15],1.93 ± 0.36 g
same,Inhibition rate (%),[1]; [16],2.3%
same,Tumor weight,[1]; [16],2.95 ± 0.33 g
same,Inhibition rate (%),[1]; [17],7.3%
same,Tumor weight,[1]; [17],2.8 ± 0.39 g
same,Inhibition rate (%),[1]; [18],33.4%
same,Tumor weight,[1]; [18],2.01 ± 0.36 g
same,Average weight (g)-after administration,"[1]; mouse, in vivo, 10 mg/kg",20.3 g
same,Average weight(g)-after administration,"[1]; mouse, in vivo, 10 mg/kg",22.3 g
same,Average weight (g)-after administration,"[1]; mouse, in vivo, 20 mg/kg",20.9 g
same,Average weight(g)-after administration,"[1]; mouse, in vivo, 20 mg/kg",21.9 g
same,Average weight (g)-after administration,"[1]; mouse, in vivo, 40 mg/kg",21.9 g
same,Average weight(g)-after administration,"[1]; mouse, in vivo, 40 mg/kg",21.4 g
same,Average weight(g)-after administration,"[1]; mouse, in vivo, iv, 10 mg/kg",22.3 g
same,Average weight(g)-after administration,"[1]; mouse, in vivo, iv, 20 mg/kg",21.9 g
same,Average weight(g)-after administration,"[1]; mouse, in vivo, iv, 40 mg/kg",22.4 g
same,inhibitory effect against mouse grafted liver cancer H22 (in words),[1],some inhibitory effect only when the concentration reached 40 mg/kg
same,Inhibition rate (%),[2]; [19],16%
same,Tumor weight,[2]; [19],2.1 ± 0.42 g
same,Inhibition rate (%),[2]; [20],20%
same,Tumor weight,[2]; [20],2.0 ± 0.40 g
same,Inhibition rate (%),[2]; [21],48%
same,Tumor weight,[2]; [21],1.3 ± 0.24 g
same,Inhibition rate (%),[2]; [22],15.4%
same,Tumor weight,[2]; [22],2.2 ± 0.31 g
same,Inhibition rate (%),[2]; [23],15.4%
same,Tumor weight,[2]; [23],2.2 ± 0.29 g
same,Inhibition rate (%),[2]; [24],46.1%
same,Tumor weight,[2]; [24],1.4 ± 0.37 g
same,Average weight (g)-after administration,"[2]; mouse, in vivo, iv, 10 mg/kg",22.5 g
same,Average weight(g)-after administration,"[2]; mouse, in vivo, iv, 10 mg/kg",23.5 g
same,Average weight (g)-after administration,"[2]; mouse, in vivo, iv, 20 mg/kg",21.8 g
same,Average weight(g)-after administration,"[2]; mouse, in vivo, iv, 20 mg/kg",21.8 g
same,Average weight (g)-after administration,"[2]; mouse, in vivo, iv, 40 mg/kg",23.0 g
same,Average weight(g)-after administration,"[2]; mouse, in vivo, iv, 40 mg/kg",23.0 g
same,inhibitory effect against mouse sarcoma S-180 (in words),[2],had the inhibitory effect only when the concentration reached 40 mg/kg
"C=C1CC2(OS(=O)(=O)[O-])OC3(CC2C(C)C)C(C)CCC13.[Na+] (stereo not shown) [Compound 21, Curcumol sodium sulfonate]",solubility in water (in words),[3],soluble in water
same,Average weight(g)-after administration,[1]; [10],22.1 g
same,Tumor weight,[1]; [10],3.00 ± 0.29 g
same,Average weight(g)-after administration,[1]; [11],22.0 g
same,Tumor weight,[1]; [11],3.03 ± 0.41 g
same,Average weight(g)-after administration,[1]; [12],22.1 g
same,Inhibition rate (%),[1]; [12],4.0%
same,Tumor weight,[1]; [12],2.9 ± 0.31 g
same,Average weight(g)-after administration,[1]; [13],22.1 g
same,Tumor weight,[1]; [13],3.03 ± 0.29 g
same,Average weight(g)-after administration,[1]; [14],22.0 g
same,Tumor weight,[1]; [14],3.02 ± 0.41 g
same,Average weight(g)-after administration,[1]; [15],22.1 g
same,Inhibition rate (%),[1]; [15],1.0%
same,Tumor weight,[1]; [15],3.0 ± 0.31 g
same,Average weight (g)-after administration,[1]; [16],22.1 g
same,Tumor weight,[1]; [16],3.02 ± 0.29 g
same,Average weight (g)-after administration,[1]; [17],21.0 g
same,Tumor weight,[1]; [17],3.01 ± 0.41 g
same,Average weight (g)-after administration,[1]; [18],20.1 g
same,Inhibition rate (%),[1]; [18],1.0%
same,Tumor weight,[1]; [18],3.0 ± 0.31 g
same,inhibitory effect against mouse grafted liver cancer H22 (in words),[1],little inhibitory effect
same,Average weight (g)-after administration,[2]; [19],22.6 g
same,Tumor weight,[2]; [19],2.6 ± 0.23 g
same,Average weight (g)-after administration,[2]; [20],22.5 g
same,Inhibition rate (%),[2]; [20],4%
same,Tumor weight,[2]; [20],2.4 ± 0.43 g
same,Average weight (g)-after administration,[2]; [21],23.1 g
same,Inhibition rate (%),[2]; [21],8%
same,Tumor weight,[2]; [21],2.3 ± 0.31 g
same,Average weight(g)-after administration,[2]; [22],22.6 g
same,Inhibition rate (%),[2]; [22],3.8%
same,Tumor weight,[2]; [22],2.5 ± 0.42 g
same,Average weight(g)-after administration,[2]; [23],22.2 g
same,Inhibition rate (%),[2]; [23],3.8%
same,Tumor weight,[2]; [23],2.5 ± 0.38 g
same,Average weight(g)-after administration,[2]; [24],23.1 g
same,Inhibition rate (%),[2]; [24],7.6%
same,Tumor weight,[2]; [24],2.4 ± 0.36 g
same,inhibitory effect against mouse sarcoma S-180 (in words),[2],little inhibitory effect
same,IC50,"[4]; Influenza A virus, CPE in MDCK cells",47.7 µg/mL
same,"SI, influenza A virus",[4]; SI = TC50/IC50,20.96
same,activity against VSV (in words),[5]; 200 μg/ml,had the activity against VSV
same,activity against VSV (in words),"[5]; first round of the primary screening, 13 samples",some activities against VSV
"CC(C)C1CC23OC1(O)C/C(=C\Nc1ccc(O)cc1)C2CCC3C (stereo not shown) [Compound 5, Curcumol p-hydroxy aniline]",IC50,[6],3.6 µg/mL
same,IC50,[7],2 µg/mL
same,IC50,[8],0.9 µg/mL
same,IC50,[9],4.3 µg/mL
